The record followed here is ChEMBL document CHEMBL1201862, “PubChem BioAssay data set” (2004).

Among the test systems are DU-145; SK-MEL-2; UACC-257; NCI-H522; K562; NCI-H226; UO-31; HL-60; PC-3; HCT-116; SF-295; OVCAR-5; Malme-3M; SF-539; UACC-62; NCI-H460; SN12C; SW-620; U-251; SNB-19.
Holding throughout (assay): DTP human tumour cell line panel, 48 h

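Test compounds were applied to cells in 96-well plates for 48 hours at 5 doses. At the GI50, growth is halved.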 Calls of active or inactive are those of the source. Rule as the data show it: active = GI50 up to about 1.1 µM and inactive = higher.

Consider `O=C(Nc1ccccc1C(=O)Nc1nccs1)c1ccccc1`, for which the GI50 (usually the concentration that inhibits growth by half) with DU-145 was 13.6 µM (inactive); with SK-MEL-2, 5.22 µM (inactive); in the experiment with UACC-257, 31 µM (inactive); in the experiment with NCI-H522, 14.3 µM (inactive); with K562, 11.2 µM (inactive); with NCI-H226, 32.5 µM (inactive). The GI50 in the experiment on UO-31 is 7.89 µM (inactive); in the experiment with HL-60, 3.82 µM (inactive); with PC-3, 2.45 µM (inactive); in the experiment with HCT-116, 12.1 µM (inactive); in the experiment on SF-295, 25.8 µM (inactive); in the experiment on OVCAR-5 it was > 100 µM (inactive). Besides, the GI50 in the experiment with Malme-3M was 10.5 µM (inactive); in the experiment on SF-539, 43 µM (inactive); in the experiment on UACC-62, 25.2 µM (inactive); with NCI-H460, 3.81 µM (inactive); with SN12C, 59 µM (inactive); with SW-620 it was 25.6 µM (inactive). Besides, the GI50 in the experiment on U-251 was 6.52 µM (inactive); in the experiment with SNB-19 it was 31.9 µM (inactive).
As to `O=[N+]([O-])/C=C\c1c[nH]c2ccc(OCc3ccccc3)cc12`, the GI50 was 7.46 µM (inactive) with DU-145; 11.5 µM (inactive) in the experiment with SK-MEL-2; 1.64 µM (inactive) in the experiment on UACC-257; 10.2 µM (inactive) in the experiment with NCI-H522; 2.55 µM (inactive) in the experiment with K562; 2.18 µM (inactive) in the experiment with NCI-H226. Besides, the GI50 in the experiment on UO-31 is 3.58 µM (inactive); with HL-60, 2.62 µM (inactive); in the experiment with PC-3, 7.33 µM (inactive); with HCT-116, 1.73 µM (inactive); with SF-295, 10.6 µM (inactive); in the experiment with OVCAR-5 it was 11.1 µM (inactive). The GI50 in the experiment with Malme-3M was 11 µM (inactive); in the experiment with SF-539, 10.4 µM (inactive); in the experiment with UACC-62, 2.9 µM (inactive); in the experiment on NCI-H460, 4.43 µM (inactive); with SN12C, 2.24 µM (inactive); in the experiment with SW-620 it was 2.51 µM (inactive). For the same compound, the figures for the GI50 with U-251 and in the experiment with SNB-19 were 5.85 µM (inactive) and 4.89 µM (inactive), respectively.
As for `CC(C)(C)n1c(=O)n2n(c1=O)C1c3cccc4cccc(c34)C2C2c3cccc4cccc(c34)C1n1c(=O)n(C(C)(C)C)c(=O)n12`, the GI50 was 80.2 µM (inactive) with DU-145; 37.5 µM (inactive) with SK-MEL-2; > 100 µM (inactive) with UACC-257; 36 µM (inactive) with NCI-H522; 87.5 µM (inactive) with K562; 84.1 µM (inactive) in the experiment on NCI-H226. The GI50 is > 100 µM (inactive) with UO-31; 30.5 µM (inactive) in the experiment with HL-60; 59.8 µM (inactive) with PC-3; 61.9 µM (inactive) in the experiment on HCT-116; 80.4 µM (inactive) in the experiment on SF-295; > 100 µM (inactive) with OVCAR-5. Further, the GI50 in the experiment on Malme-3M is > 100 µM (inactive); in the experiment with SF-539, 41.4 µM (inactive); in the experiment with UACC-62 it was 66.4 µM (inactive); in the experiment with NCI-H460 it was 64.7 µM (inactive); in the experiment with SN12C it was > 100 µM (inactive); in the experiment on SW-620, 90.4 µM (inactive). For the same compound, the GI50 in the experiment on U-251 is 43 µM (inactive); in the experiment on SNB-19, > 100 µM (inactive).
Turning to `Oc1nc2nc3ccccc3nc2nc1O`, the GI50 in the experiment on DU-145, with SK-MEL-2, with UACC-257, in the experiment on NCI-H522, with K562 and with NCI-H226 was > 100 µM (inactive) throughout. The GI50 with UO-31, with HL-60, with PC-3, in the experiment on HCT-116, in the experiment with SF-295 and in the experiment on OVCAR-5 was > 100 µM (inactive) throughout. The GI50 in the experiment on Malme-3M, in the experiment with SF-539, in the experiment with UACC-62, with NCI-H460, in the experiment on SN12C and with SW-620 was > 100 µM (inactive) throughout. Also, the GI50 with U-251 and in the experiment with SNB-19 was > 100 µM (inactive) each time.
As to `CC(/C=C/C(=O)NO)=C\C(C)C(=O)c1ccc(N(C)C)cc1` (stereo not given), the GI50 in the experiment with DU-145 was 0.0176 µM (active); in the experiment with SK-MEL-2, 0.217 µM (active); in the experiment on UACC-257, 0.0614 µM (active); in the experiment with NCI-H522 it was < 0.01 µM (active); with K562 it was 0.0325 µM (active); with NCI-H226, 0.188 µM (active). The GI50 in the experiment on UO-31 is 0.0498 µM (active); in the experiment on HL-60 it was 0.207 µM (active); with PC-3, 0.0156 µM (active); in the experiment with HCT-116 it was < 0.01 µM (active); in the experiment with SF-295 it was 0.0951 µM (active); with OVCAR-5 it was 0.114 µM (active). For the same compound, the GI50 is < 0.01 µM (active) in the experiment on Malme-3M; 0.0267 µM (active) in the experiment on SF-539; 0.0512 µM (active) in the experiment with UACC-62; < 0.01 µM (active) in the experiment on NCI-H460; 0.0605 µM (active) with SN12C; < 0.01 µM (active) in the experiment on SW-620. Besides, the GI50 in the experiment on U-251 is 0.0142 µM (active); in the experiment with SNB-19 it was 0.0281 µM (active).
